Legend:
[1] = molecular target: T1, AtDPE1 (disproportionating enzyme 1) (Arabidopsis thaliana, UniProt Q9LV91); assay: X-ray crystallography, crystal soak; format: biochemical; conditions: covalent; 10 mM soak, pH 8.0; only the maltosyl unit (subsites -2, -1) linked to Asp-373 seen, from slow cleavage; 2.30 Å
T1 construct: gene DPE1; residues 46-576, transit peptide removed, N-terminal His6 tag kept (pET151/D-TOPO), homodimer
T1 sequence (Q9LV91 46-576): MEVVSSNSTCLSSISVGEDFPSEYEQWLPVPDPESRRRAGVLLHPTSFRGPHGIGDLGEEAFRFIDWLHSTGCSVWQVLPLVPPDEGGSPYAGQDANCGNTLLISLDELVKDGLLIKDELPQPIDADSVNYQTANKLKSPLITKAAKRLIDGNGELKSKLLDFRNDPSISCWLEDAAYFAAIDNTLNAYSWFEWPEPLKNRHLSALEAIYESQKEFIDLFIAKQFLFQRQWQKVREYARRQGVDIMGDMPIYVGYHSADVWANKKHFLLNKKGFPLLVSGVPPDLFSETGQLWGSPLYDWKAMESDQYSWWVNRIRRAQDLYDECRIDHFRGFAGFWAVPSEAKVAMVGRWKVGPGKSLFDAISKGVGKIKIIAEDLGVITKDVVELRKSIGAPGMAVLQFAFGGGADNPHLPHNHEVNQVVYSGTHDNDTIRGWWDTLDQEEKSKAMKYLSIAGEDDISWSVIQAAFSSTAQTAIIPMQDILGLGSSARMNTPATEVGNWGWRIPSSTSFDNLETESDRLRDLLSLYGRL

[2] = molecular target: T1, AtDPE1 (disproportionating enzyme 1); assay: turnover in crystal (transglycosylation during soak), X-ray crystallography; format: biochemical; conditions: 10 mM soak, pH 8.0; intact maltotriose not seen, longer malto-oligosaccharide bound

SMILES | X-ray crystallography, crystal soak [1] | turnover in crystal (transglycosylation during soak), X-ray crystallography [2]
OC[C@H]1O[C@@H]2O[C@H]3[C@H](O)[C@@H](O)[C@@H](O[C@H]4[C@H](O)[C@@H](O)[C@@H](O[C@H]5[C@H](O)[C@@H](O)[C@@H](O[C@H]6[C@H](O)[C@@H](O)[C@@H](O[C@H]7[C@H](O)[C@@H](O)[C@@H](O[C@H]8[C@H](O)[C@@H](O)[C@@H](O[C@H]1[C@H](O)[C@H]2O)O[C@@H]8CO)O[C@@H]7CO)O[C@@H]6CO)O[C@@H]5CO)O[C@@H]4CO)O[C@@H]3CO [BCD, β-cyclodextrin] | The covalently bound donor most likely resulted from a slow hydrolysis of β-cyclodextrin | 
OC[C@H]1O[C@H](O[C@H]2[C@H](O)[C@@H](O)[C@@H](O[C@H]3[C@H](O)[C@@H](O)C(O)O[C@@H]3CO)O[C@@H]2CO)[C@H](O)[C@@H](O)[C@@H]1O (some centres unmarked) [MA3, maltotriose] |  | malto-oligosaccharide in each active site, indicative of transglycosylation reactions occurring during crystal soaking
